Measurements published in paper PMC9687610, “Adenosine-Mimicking Derivatives of 3-Aminopyrazine-2-Carboxamide: Towards Inhibitors of Prolyl-tRNA Synthetase with Antimycobacterial Activity” (Biomolecules, 2022).
≈ marks a conversion by molar mass, not a printed value. Where two headings read alike, the source gives them in different places.

Assays:
[1] = test system: Enterococcus faecalis CCM 4224 (ATCC 29212); test: Antibacterial microdilution broth (EUCAST), EF; type: cell-based; details: Enterococcus faecalis
[2] = test system: Mycobacterium tuberculosis H37Rv CNCTC My 331/88 (ATCC 27294); test: MABA microdilution, Mtb H37Rv; type: cell-based; details: Mycobacterium tuberculosis, read-out: Mtb H37Rv MIC
[3] = test system: Mycobacterium tuberculosis H37Ra ITM-M006710 (ATCC 9431); test: Microplate Alamar Blue Assay (MABA), Mtb H37Ra; type: cell-based; details: for MIC: Mycobacterium tuberculosis, 120 h, pH 6.6, MABA, Middlebrook 7H9 broth pH 6.6, resazurin after 120 h, read-out: Mtb H37Ra MIC; for antimycobacterial activity (in words): activity refers to Mtb H37Ra from the primary screening if not otherwise stated
[4] = test system: M. aurum DSM 43999 (ATCC 23366); test: Microplate Alamar Blue Assay (MABA), M. aurum; type: cell-based; details: Mycolicibacterium aurum; MABA, resazurin after 72 h; read-out: M. aurum MIC
[5] = test system: Mycobacterium smegmatis DSM 43465 (ATCC 607); test: Microplate Alamar Blue Assay (MABA), M. smegmatis; type: cell-based; details: Mycolicibacterium smegmatis; MABA, resazurin after 48 h; read-out: M. smegmatis MIC
[6] = test system: Aspergillus fumigatus ATCC 204305; test: Antifungal microdilution broth (EUCAST), AF; type: cell-based; details: Aspergillus fumigatus, ATCC204305; read after 24 h; read-out: AF MIC
[7] = test system: Candida tropicalis CCM 8264 (ATCC 750); test: Antifungal microdilution broth (EUCAST), CT; type: cell-based; details: Candida tropicalis; read after 24 h; read-out: CT MIC
[8] = test system: Klebsiella pneumoniae CCM 4415 (ATCC 10031); test: Antibacterial microdilution broth (EUCAST), KP; details: read after 24 h
[9] = test system: Candida krusei CCM 8271 (ATCC 6258); test: Antifungal microdilution broth (EUCAST), CK; type: cell-based; details: Pichia kudriavzevii; read after 24 h; read-out: CK MIC
[10] = test system: Staphylococcus aureus subsp. aureus methicillin-resistant (MRSA) CCM 4750 (ATCC 43300); test: Antibacterial microdilution broth (EUCAST), MRSA; type: cell-based; details: Staphylococcus aureus; read after 24 h; read-out: MRSA MIC
[11] = test system: Acinetobacter baumannii DSM 30007 (ATCC 19606); test: Antibacterial microdilution broth (EUCAST), ACI; type: cell-based; details: Acinetobacter baumannii; read after 24 h; read-out: ACI MIC
[12] = test system: Staphylococcus epidermidis CCM 4418 (ATCC 12228); test: Antibacterial microdilution broth (EUCAST), SE; type: cell-based; details: read after 24 h, read-out: SE MIC
[13] = test system: HepG2 human hepatocellular carcinoma cells; test: In vitro HepG2 cytotoxicity (CellTiter 96); details: Homo sapiens, HepG2, 24 h, read-out: HepG2 IC50, 24 h incubation; * limit = highest evaluated concentration (precipitation in medium); ** over the 1000 µM limit
[14] = test system: Candida albicans CCM 8320 (ATCC 24433); test: Antifungal microdilution broth (EUCAST), CA; type: cell-based; details: Candida albicans; read after 24 h; read-out: CA MIC
[15] = test system: Staphylococcus aureus subsp. aureus CCM 4223 (ATCC 29213); test: Antibacterial microdilution broth (EUCAST), SA; type: cell-based; details: Staphylococcus aureus; read after 24 h; read-out: SA MIC
[16] = test system: Escherichia coli CCM 3954 (ATCC 25922); test: Antibacterial microdilution broth (EUCAST), EC; type: cell-based; details: Escherichia coli; read after 24 h; read-out: EC MIC
[17] = test system: Trichophyton interdigitale CCM 8377 (ATCC 9533); test: Antifungal microdilution broth (EUCAST), TI; type: cell-based; details: Trichophyton interdigitale, 72 h, read-out: TI MIC
[18] = test system: Candida parapsilosis CCM 8260 (ATCC 22019); test: Antifungal microdilution broth (EUCAST), CP; type: cell-based; details: Lodderomyces parapsilosis; read after 24 h; read-out: CP MIC
[19] = test system: Aspergillus flavus CCM 8363; test: Antifungal microdilution broth (EUCAST), AFla; type: cell-based; details: Aspergillus flavus, CCM8363; read after 24 h; read-out: AFla MIC
[20] = test system: Pseudomonas aeruginosa CCM 3955 (ATCC 27853); test: Antibacterial microdilution broth (EUCAST), PA; type: cell-based; details: Pseudomonas aeruginosa; read after 24 h; read-out: PA MIC
[21] = test system: Lichtheimia corymbifera CCM 8077; test: Antifungal microdilution broth (EUCAST), LC; type: cell-based; details: Lichtheimia corymbifera, CCM8077; read after 24 h; read-out: LC MIC
[22] = read after 24 h, read-out: EF MIC

| SMILES | MIC [3] [µg/mL] | MIC [4] [µg/mL] | MIC [5] [µg/mL] | MIC [6] [µM] | MIC [7] [µM] | melting point [°C] | MIC [1, 22] [µM] | KP MIC [8] [µM] | MIC [9] [µM] | MIC [10] [µM] | MIC [11] [µM] | MIC [12] [µM] | IC50 [13] [mM] | MIC [14] [µM] | MIC [15] [µM] | MIC [16] [µM] | MIC [17] [µM] | MIC [18] [µM] | MIC [19] [µM] | MIC [20] [µM] | other results |
| --- | --- | --- | --- | --- | --- | --- | --- | --- | --- | --- | --- | --- | --- | --- | --- | --- | --- | --- | --- | --- | --- |
| O=C(O)c1cn(C2CC2)c2cc(N3CCNCC3)c(F)cc2c1=O [CIP, ciprofloxacin, reference compound] | 0.25 (≈ 0.754 µM) | 0.016 (≈ 0.0483 µM) | 0.063 (≈ 0.19 µM) |  |  |  |  |  |  |  |  |  |  |  |  |  |  |  |  |  | MIC ([1]; internal quality control, no visible growth, 24 h, read-out: MIC, visual detection): 1.02 µg/mL; MIC [2]: 0.2 µg/mL (≈ 0.604 µM) |
| Cc1ccc(C(=O)Nc2nccnc2C(=O)N(C)C)cc1 [Compound 36] | ≥ 500 | ≥ 500 | ≥ 500 | > 125 | > 125 | 188.7 to 189.5 | > 125 | > 125 | > 125 | > 125 | > 125 | > 125 | > 1 | > 125 | > 125 | > 125 | > 125 | > 125 | > 125 | > 125 | antimycobacterial activity (in words) [3]: inactive; MIC [21]: > 125 µM |
| CN(C)C(=O)c1nccnc1NC(=O)c1ccc(Cl)cc1 [Compound 37] | ≥ 500 | ≥ 500 | ≥ 500 | > 500 | > 500 | 184.1 to 185.3 | > 500 | > 500 | > 500 | > 500 | > 500 | > 500 | > 1 | > 500 | > 500 | > 500 | > 500 | > 500 | > 500 | > 500 | antimycobacterial activity (in words) [3]: inactive; MIC [21]: > 500 µM |
| O=c1[nH]c(-c2ccccc2)nc2nccnc12 [Compound 39] | 62.5 (≈ 279 µM) | 125 (≈ 557 µM) | ≥ 500 | > 125 | > 125 | 283.5 to 284.5 | > 125 | > 125 | > 125 | > 125 | > 125 | > 125 | > 1 | > 125 | > 125 | > 125 | > 125 | > 125 | > 125 | > 125 | MIC [21]: > 125 µM |
| Cc1ccc(-c2nc3nccnc3c(=O)[nH]2)cc1 [Compound 40] | 31.2 (≈ 131 µM) | 250 (≈ 1050 µM) | ≥ 250 | > 125 | > 125 | 300.5 to 302 | > 125 | > 125 | > 125 | > 125 | > 125 | > 125 | > 1 | > 125 | > 125 | > 125 | > 125 | > 125 | > 125 | > 125 | MIC [21]: > 125 µM |
| O=c1[nH]c(-c2ccc(F)cc2)nc2nccnc12 [Compound 41] | ≥ 500 | ≥ 500 | ≥ 500 | > 125 | > 125 | 277 to 279.5 | > 125 | > 125 | > 125 | > 125 | > 125 | > 125 | > 1 | > 125 | > 125 | > 125 | > 125 | > 125 | > 125 | > 125 | MIC [21]: > 125 µM |
| O=c1[nH]c(-c2ccc(Cl)cc2)nc2nccnc12 [Compound 42] | ≥ 500 | ≥ 500 | ≥ 500 | > 125 | > 125 | 306.5 to 307.9 | > 125 | > 125 | > 125 | > 125 | > 125 | > 125 | > 0.25 | > 125 | > 125 | > 125 | > 125 | > 125 | > 125 | > 125 | MIC [21]: > 125 µM |
| O=c1[nH]c(-c2ccc(Br)cc2)nc2nccnc12 [Compound 43] | 31.2 (≈ 103 µM) | ≥ 500 | ≥ 500 | > 125 | > 125 | 315.4 to 317.4 | > 125 | > 125 | > 125 | > 125 | > 125 | > 125 | > 0.25 | > 125 | > 125 | > 125 | > 125 | > 125 | > 125 | > 125 | MIC [21]: > 125 µM |
